Measurements taken from patent publication US7776558B2, “Human G protein-coupled receptor and modulators thereof for the treatment of cell death-related disorders” (Arena Pharmaceuticals, Inc., priority 2003, dated 2010).
Where no end group is shown, it is not given here.

How the values were obtained:
[1] = system: primary mouse cortical neurons; assay: 22C11 (anti-APP antibody)-induced cell death of primary mouse cortical neurons; assay type: cell-based; settings: added 1 h prior to mAb 22C11; overnight (~18 h); LDH assay; FIG. 11B
Description: 22C11 is a monoclonal antibody (mAb) which binds to the extracellular domain of the human, rat or mouse β-amyloid precursor protein (APP) (Boehringer Mannheim; Indianapolis, Ind.).
The assay was set up essentially as described by Rohn et al. [Neurochem (2000) 74:2331-2342]. Briefly, the primary cultures of mouse cortical neurons were established from E17 embryos. The gestational pups were humanely decapitated, and the brain was harvested into Hanks Buffered Salt Solution (HBSS) buffer. The cortices were taken and processed with trypsin (0.05% in HBSS), after which the cells were mechanically dissociated using a 21 g needle. The cell suspension was then passed through a […] filter, and the recovered cells plated on poly-D-lysine-treated 12-well plates. After five days of culture, the cells were used for assay.
For the assay, four experimental groups were set up. […] In the “22C11” group, cells were cultured in the presence of mAb 22C11 alone. […] The assay was allowed to proceed overnight (˜18 h), after which cell viability was determined by LDH assay as described in Example 25.

FPR [2] = target: T1, FPR (Homo sapiens, UniProt P21462); assay: IP3 assay, HEK293 cells transiently transfected with FPR (negative control); assay type: cell-based; design: Full-Length Cloning of Human GPCRs; expressed in transfected cells; host or cells: HEK293 cells, transient; settings: not shown
T1 sequence (P21462 1-350): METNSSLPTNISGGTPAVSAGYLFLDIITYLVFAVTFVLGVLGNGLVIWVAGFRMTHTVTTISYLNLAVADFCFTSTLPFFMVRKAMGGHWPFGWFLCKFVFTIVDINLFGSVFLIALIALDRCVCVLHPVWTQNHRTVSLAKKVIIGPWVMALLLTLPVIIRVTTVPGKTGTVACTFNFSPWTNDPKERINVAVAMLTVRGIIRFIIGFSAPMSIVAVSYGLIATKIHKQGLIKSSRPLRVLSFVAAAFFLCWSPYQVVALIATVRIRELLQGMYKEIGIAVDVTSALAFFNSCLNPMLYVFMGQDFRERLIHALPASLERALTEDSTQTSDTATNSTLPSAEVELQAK

FPR [3] = target: T1, FPR; assay: [35S]GTPγS binding assay, membranes of transiently transfected CHO cells; assay type: biochemical; design: Full-Length Cloning of Human GPCRs; expressed in transfected cells; host or cells: CHO-K1 cells, transient, pCMV; plasma membranes; settings: FIG. 3 panel C; up to a dose of 10 μM
Description: The plasmids used were HA/V5 doubled tagged endogenous FPRL2 in pCMV, HA/V5 double-tagged endogenous FPRL1 in pCMV, HAN5 double-tagged endogenous FPR in pCMV, and pCMV alone (See, Example 1). Transient transfections were carried out on CHO-K1 cells. To a 15 cm dish of confluent cells, 12 μg of plasmid DNA and 60 μl Lipofectamine (Invitrogen, Carlsbad, Calif.) were added to each plate. Twenty-four hours post-infection, plasma membranes were isolated as described below. Assays were then run as described below.
“Membrane Scrape Buffer” consists of 20 mM HEPES and 10 mM EDTA, pH 7.4; “Membrane Wash Buffer” consists of […] and 0.1 mM EDTA, pH 7.4; “Binding. Buffer” consists of 20 mM HEPES, 100 mM NaCl, and 10 mM MgCl2, pH 7.4.
All materials were kept on ice throughout the procedure. Firstly, the media was aspirated from a confluent monolayer of transfected cells, followed by rinse with 10 ml cold PBS, followed by aspiration. Thereafter, 10 ml of Membrane Scrape Buffer was added to scrape cells; this was followed by transfer of cellular extract into 50 ml centrifuge tubes (centrifuged at 20,000 rpm for 17 minutes at 4° C.). […]
First, 100 μl GDP Buffer was added to each well of a Wallac Scintistrip™ (Wallac). […] The plates were then read on a Wallac 1450 using setting “Prot. #37” (as per manufacturer instructions).

[4] = mice; Mamiya & Ukai 2001; cited from earlier work
FPRL1 = target: T2, FPRL1 (Homo sapiens, UniProt P25090); settings: Ying et al. 2002; cited from earlier work
T2 sequence (P25090 1-351): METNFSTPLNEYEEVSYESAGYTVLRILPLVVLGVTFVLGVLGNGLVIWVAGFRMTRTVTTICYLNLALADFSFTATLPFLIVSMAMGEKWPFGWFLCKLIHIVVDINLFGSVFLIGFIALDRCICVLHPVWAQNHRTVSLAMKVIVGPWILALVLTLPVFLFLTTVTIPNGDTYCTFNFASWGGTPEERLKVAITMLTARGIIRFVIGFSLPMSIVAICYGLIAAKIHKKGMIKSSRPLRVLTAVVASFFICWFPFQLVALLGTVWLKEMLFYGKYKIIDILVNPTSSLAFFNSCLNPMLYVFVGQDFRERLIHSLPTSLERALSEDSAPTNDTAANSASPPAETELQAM

Compound	Protection from cell death induced by anti-APP mAb 22C11 [1]	IP3 response in HEK293 cells transiently transfected with FPR (FPR [2])	Activity at FPR, promoted [35S]GTPγS binding (FPR [3])	Learning and memory impairment [4]	Use of FPRL1 as receptor (FPRL1)
CC(C)c1ccc2c(c1)CCC1C(C)(C(N)=O)CCCC21C (centres unmarked) [Compound 1, 7-Isopropyl-1,4a-dimethyl-1,2,3,4,4a,9,10,10a-octahydro-phenanthrene-1-carboxylic acid amide]	protect primary mouse cortical neurons from cell death	no IP3 response			
MAPRGFSCLLLLTGEIDLPVKRRA [[Gly14]-Humanin]			Neither Humanin nor [Gly14]-Humanin evidence significant activity		
CC[C@H](C)[C@H](NC(=O)[C@H](CCC(=O)O)NC(=O)[C@H](CO)NC(=O)[C@@H](NC(=O)[C@H](CC(C)C)NC(=O)[C@H](CC(C)C)NC(=O)[C@H](CC(C)C)NC(=O)[C@H](CC(C)C)NC(=O)[C@H](CS)NC(=O)[C@H](CO)NC(=O)[C@H](Cc1ccccc1)NC(=O)CNC(=O)[C@H](CCCNC(=N)N)NC(=O)[C@@H]1CCCN1C(=O)[C@H](C)NC(=O)[C@@H](N)CCSC)[C@@H](C)O)C(=O)N[C@@H](CC(=O)O)C(=O)N[C@@H](CC(C)C)C(=O)N1CCC[C@H]1C(=O)N[C@H](C(=O)N[C@@H](CCCCN)C(=O)N[C@@H](CCCNC(=N)N)C(=O)N[C@@H](CCCNC(=N)N)C(=O)N[C@@H](C)C(=O)O)C(C)C [Humanin]	protect primary mouse cortical neurons from cell death	no IP3 response	Neither Humanin nor [Gly14]-Humanin evidence significant activity	improve learning and memory impairment in mice	uses FPRL1 as a functional receptor
